Experiments:
PSMA = target: T1, PSMA (Homo sapiens, UniProt Q04609); assay: Competitive binding (IC50) on LNCaP cells vs ([125I]I-BA)KuE; details: 1 h, 4 °C, n = 5-9, read-out: IC50 (binding affinity)
T1 construct: host or cells: LNCaP cells
Experimental: (§1) Competitive binding studies were determined on LNCaP cells (1.5 × 10^5 cells in 1 mL/well) after incubation at 4 °C for 1 h, using (((S)-1-carboxy-5-(4-([^125I]iodo)benzamido)pentyl)carbamoyl)-L-glutamic acid (([^125I]I-BA)KuE; 0.2 nM/well) as reference radioligand (n = 5–9). Internalization studies of the radiolabeled ligands (0.5 nM/well) were performed on LNCaP cells (1.25 × 10^5 cells in 1 mL/well) at 37 °C for 1 h and accompanied by ([^125I]I-BA)KuE (0.2 nM/well), as reference. Data were corrected for non-specific binding and normalized to the specific internalization observed for the reference (n = 3–6). A detailed description of the experimental procedures was previously published.

[1] = tested on: LNCaP tumor-bearing male CB-17 SCID mice; assay: Biodistribution 1 h p.i. with competition (co-injection of 2-PMPA); type: in vivo; details: co-injected with 2-PMPA (8 mg/kg), n = 3
Experimental: (§2) LNCaP tumor xenografts were established in 6–8 weeks old male CB-17 SCID mice as described previously.
(§3) 1–3 MBq (0.2 nmol) of the [^18F, ^natGa]rhPSMA inhibitors were injected into the tail vein of LNCaP tumor-bearing male CB-17 SCID mice that were sacrificed 1 h post injection (p.i.) (n = 4 for 7.1, n = 5 for 7.2, n = 4 for 7.3, n = 5 for 7.4 and n = 3 for 7). Selected organs were removed, weighed, and measured in a γ-counter. For competition studies, 8 mg/kg of 2-PMPA (2-(Phosphonomethyl)-pentandioic acid) were co-administered (n = 3).

human serum albumin = target: T2, human serum albumin (Homo sapiens, UniProt P02768); assay: Human serum albumin binding on Chiralpak HSA column; type: in vitro ADME
T2 construct: purchased
Experimental: Approximately 1 MBq of the ^18F-ligand was dissolved in 1 mL of a 1:1 mixture (v/v) of phosphate-buffered saline (PBS, pH 7.4) and n-octanol (n = 18–23). After vigorous mixing of the suspension for 3 min, the vial was centrifuged at 15,000 × g for 3 min and 100 μL aliquots of both layers were measured in a γ-counter. HSA binding of ^19F-^natGa-rhPSMA ligands was determined according to a previously published procedure.

LNCaP tumor-bearing mice = assay: Differential uptake and excretion pattern of isomers after injection of the diastereomeric mixture (radio-HPLC); type: in vivo; details: blood, liver, kidney and tumor, 30 min p.i., n = 4
Experimental: With the intention to identify even marginal differences in the in vivo behavior, all four [^18F, ^natGa]rhPSMA-7 isomers were co-evaluated in one single tumor-bearing mouse in order to quantify the differential uptake and excretion pattern of each isomer. For this purpose, the diastereomeric mixture [^18F, ^natGa]rhPSMA-7 was produced in high molar activity (AM) of 247–349 GBq/µmol (at end of synthesis) and the abundance of each isomer was determined by radio-HPLC. Mice (n = 4) were injected with [^18F, ^natGa]rhPSMA-7 (180–280 MBq, 0.9–1.0 nmol) and left under anesthesia. After 30 min p.i., they were sacrificed and urine, blood, liver, kidneys and tumor were collected and processed. Radioactivity was extracted from solid tissues by means of a Potter–Elvehjem tissue grinder (n = 1) or a ball mill (n = 3) and separated from the protein fraction by subsequent cartridge-based solid-phase extraction (SPE). Blood samples were diluted, centrifuged and the supernatant was purified by SPE (see supporting information). Urine and extracts from tissue samples were then analyzed by radio-HPLC to quantify the fraction of each isomer in each sample. Finally, the relative percentage difference between the abundance of each isomer in the injected diastereomeric mixture (values taken from the quality control) and the abundance of the respective isomer in each analyzed tissue or body fluid was calculated. […] PeakFit allows for automated nonlinear separation, analysis and quantification of HPLC elution profiles by deconvolution procedures that uses a Gaussian response function with a Fourier deconvolution/filtering algorithm (see Additional file 1: Fig. 7).
Extraction via the Potter-Elvehjem Tissue Grinder. Tumor and kidneys were separately homogenized in the tissue homogeniser with 1 mL of extraction buffer (850 μL 1 M HEPES pH 7.4, 100 μL 20 mM PMPA and 100 μL 1 M NaCl) for 30 min. The resulting homogenate was collected and centrifuged at 13000×g for 5 min. Subsequently, the supernatant was collected, centrifuged again (13000×g, 5 min) and loaded on a Strata X cartridge (33 μm Polymeric Reversed Phase 500 mg) preconditioned with 5 mL MeOH, followed by 5 mL H2O. After washing with 5 mL H2O, the cartridge was eluted with a 3:2 mixture (v/v) of MeCN in H2O supplemented with 1% TFA. For radio-HPLC analysis the eluates were diluted with water.
Extraction via the MM-400 Ball Mill. The samples (tumor, kidney, liver) were separately homogenized in a 2 mL tube together with 3 grinding balls (3 mm diameter) and 1 mL of extraction buffer (850 μL 1 M HEPES pH 7.4, 100 μL 20 mM PMPA and 100 μL 1 M NaCl) for 10 min at 30 Hz. The homogenate was centrifuged at 13 000×g for 5 min and the supernatant was collected. […]

LNCaP cells = assay: Internalization into LNCaP cells relative to ([125I]I-BA)KuE; type: cell-based; details: 1 h, 37 °C, percentage of reference ligand ([125I]I-BA)KuE, n = 3-6
Experimental: as §1

[2] = tested on: LNCaP tumor-bearing male CB-17 SCID mice; assay: Biodistribution 1 h p.i.; type: in vivo
Experimental: as §2, §3

T1 sequence (Q04609 whole entry): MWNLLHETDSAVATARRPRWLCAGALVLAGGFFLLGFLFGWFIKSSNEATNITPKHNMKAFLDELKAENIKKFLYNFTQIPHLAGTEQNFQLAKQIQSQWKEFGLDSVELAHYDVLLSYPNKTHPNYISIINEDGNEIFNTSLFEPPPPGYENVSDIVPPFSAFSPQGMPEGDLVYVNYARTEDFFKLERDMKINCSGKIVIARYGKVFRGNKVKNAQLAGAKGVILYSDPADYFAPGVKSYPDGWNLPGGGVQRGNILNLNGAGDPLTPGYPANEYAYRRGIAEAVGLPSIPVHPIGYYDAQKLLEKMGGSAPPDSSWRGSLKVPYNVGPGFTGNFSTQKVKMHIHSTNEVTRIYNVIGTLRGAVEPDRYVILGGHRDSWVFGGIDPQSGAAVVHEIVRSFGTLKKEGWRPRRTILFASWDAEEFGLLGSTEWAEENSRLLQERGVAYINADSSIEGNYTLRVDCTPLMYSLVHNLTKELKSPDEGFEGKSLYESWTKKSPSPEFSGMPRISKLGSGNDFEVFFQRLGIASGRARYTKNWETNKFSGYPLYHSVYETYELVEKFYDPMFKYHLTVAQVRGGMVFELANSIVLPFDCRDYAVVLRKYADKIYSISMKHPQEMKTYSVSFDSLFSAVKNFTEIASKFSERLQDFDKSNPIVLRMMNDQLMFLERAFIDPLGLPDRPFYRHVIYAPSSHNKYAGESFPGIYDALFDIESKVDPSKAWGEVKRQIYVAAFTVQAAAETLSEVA
T2 sequence (P02768 25-609): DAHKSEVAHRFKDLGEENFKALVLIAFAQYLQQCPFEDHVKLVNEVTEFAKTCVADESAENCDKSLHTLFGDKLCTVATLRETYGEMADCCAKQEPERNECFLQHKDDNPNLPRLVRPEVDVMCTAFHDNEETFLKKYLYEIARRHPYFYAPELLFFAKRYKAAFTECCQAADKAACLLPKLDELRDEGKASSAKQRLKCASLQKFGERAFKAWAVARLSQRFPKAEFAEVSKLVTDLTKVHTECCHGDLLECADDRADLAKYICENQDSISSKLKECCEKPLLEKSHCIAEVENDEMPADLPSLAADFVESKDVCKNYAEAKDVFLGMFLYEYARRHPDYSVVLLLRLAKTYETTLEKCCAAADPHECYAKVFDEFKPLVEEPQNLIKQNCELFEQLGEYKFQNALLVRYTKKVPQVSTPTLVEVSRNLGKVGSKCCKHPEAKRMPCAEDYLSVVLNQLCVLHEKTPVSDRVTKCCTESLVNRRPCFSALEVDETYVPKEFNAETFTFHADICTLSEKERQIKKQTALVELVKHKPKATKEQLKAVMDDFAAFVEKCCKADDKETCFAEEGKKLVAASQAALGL

Row | IC50 (PSMA) | Biodistribution Adrenals [1] | Biodistribution Blood [1] | Biodistribution Bone [1] | Biodistribution Heart [1] | Biodistribution Intestine [1] | Biodistribution Kidneys [1] | Biodistribution Liver [1] | Biodistribution Lung [1] | Biodistribution Muscle [1] | Biodistribution Pancreas [1] | Biodistribution Spleen [1] | Biodistribution Stomach [1] | Biodistribution Tumor [1] | HSA-binding (human serum albumin) | Biodistribution Adrenals [2] | Biodistribution Blood [2] | Biodistribution Bone [2] | Compound | Abundance (enrichment) of the isomer in tissue compared to time point of injection (LNCaP tumor-bearing mice) | Internalization (internalized activity) (LNCaP cells) | other results
1 | 6.9 ± 1.4 nM | – | – | – | – | – | – | – | – | – | – | – | – | – | – | – | – | – | CC(C)(C)[Si](F)(c1ccc(C(=O)NC[C@@H](NC(=O)CC[C@H](C(=O)O)N2CCN(CC(=O)[O-])CCN(CC(=O)[O-])CCN(CC(=O)[O-])CC2)C(=O)N[C@H](CCCCNC(=O)CCC(=O)NCCC[C@@H](NC(=O)CC[C@H](NC(=O)N[C@@H](CCC(=O)O)C(=O)O)C(=O)O)C(=O)O)C(=O)O)cc1)C(C)(C)C.[Ga+3] [[^18F, ^natGa]rhPSMA-7.1] | – | – | –
2 | 3.7 ± 1 nM | – | – | – | – | – | – | – | – | – | – | – | – | – | – | – | – | – | CC(C)(C)[Si](F)(c1ccc(C(=O)NC[C@H](NC(=O)CC[C@H](C(=O)O)N2CCN(CC(=O)[O-])CCN(CC(=O)[O-])CCN(CC(=O)[O-])CC2)C(=O)N[C@H](CCCCNC(=O)CCC(=O)NCCC[C@@H](NC(=O)CC[C@H](NC(=O)N[C@@H](CCC(=O)O)C(=O)O)C(=O)O)C(=O)O)C(=O)O)cc1)C(C)(C)C.[Ga+3] [[^18F, ^natGa]rhPSMA-7.2] | – | – | –
3 | – | 0.07 ± 0.10 % ID/g | 1.1 ± 0.31 % ID/g | 0.57 ± 0.39 % ID/g | 0.47 ± 0.09 % ID/g | 0.33 ± 0.10 % ID/g | 10.9 ± 1.0 % ID/g | 0.46 ± 0.07 % ID/g | 1.1 ± 0.32 % ID/g | 0.09 ± 0.03 % ID/g | 0.12 ± 0.05 % ID/g | 0.26 ± 0.07 % ID/g | 0.21 ± 0.06 % ID/g | 1.0 ± 0.13 % ID/g | 98% | 1.3 ± 0.8 % ID/g | 0.56 ± 0.20 % ID/g | 0.31 ± 0.24 % ID/g | CC(C)(C)[Si]([18F])(c1ccc(C(=O)NC[C@H](NC(=O)CC[C@H](C(=O)O)N2CCN(CC(=O)[O-])CCN(CC(=O)[O-])CCN(CC(=O)[O-])CC2)C(=O)N[C@H](CCCCNC(=O)CCC(=O)NCCC[C@@H](NC(=O)CC[C@H](NC(=O)N[C@@H](CCC(=O)O)C(=O)O)C(=O)O)C(=O)O)C(=O)O)cc1)C(C)(C)C.[Ga+3] [[^18F, ^natGa]rhPSMA-7.2] | lowest enrichment in blood, liver and kidney, but also the lowest uptake by tumors | 192 ± 16 % of reference | Biodistribution Heart [2]: 0.32 ± 0.13 % ID/g; Biodistribution Intestine [2]: 0.18 ± 0.07 % ID/g; Biodistribution Kidneys [2]: 87.6 ± 28.8 % ID/g; Biodistribution Liver [2]: 0.35 ± 0.08 % ID/g; Biodistribution Lung [2]: 0.89 ± 0.38 % ID/g; Biodistribution Muscle [2]: 0.13 ± 0.07 % ID/g; Biodistribution Pancreas [2]: 0.21 ± 0.08 % ID/g; Biodistribution Spleen [2]: 10.1 ± 6.3 % ID/g; Biodistribution Stomach [2]: 0.19 ± 0.08 % ID/g; Biodistribution Tumor [2]: 6.5 ± 2.3 % ID/g
4 | 4.4 ± 1.1 nM | – | – | – | – | – | – | – | – | – | – | – | – | – | – | – | – | – | CC(C)(C)[Si](F)(c1ccc(C(=O)NC[C@@H](NC(=O)CC[C@@H](C(=O)O)N2CCN(CC(=O)[O-])CCN(CC(=O)[O-])CCN(CC(=O)[O-])CC2)C(=O)N[C@H](CCCCNC(=O)CCC(=O)NCCC[C@@H](NC(=O)CC[C@H](NC(=O)N[C@@H](CCC(=O)O)C(=O)O)C(=O)O)C(=O)O)C(=O)O)cc1)C(C)(C)C.[Ga+3] [[^18F, ^natGa]rhPSMA-7.3] | – | – | –
5 | – | 0.07 ± 0.09 % ID/g | 0.55 ± 0.14 % ID/g | 0.34 ± 0.22 % ID/g | 0.26 ± 0.04 % ID/g | 0.94 ± 0.97 % ID/g | 15.5 ± 2.2 % ID/g | 0.46 ± 0.14 % ID/g | 0.69 ± 0.10 % ID/g | 0.09 ± 0.02 % ID/g | 0.11 ± 0.02 % ID/g | 0.35 ± 0.02 % ID/g | 0.76 ± 0.74 % ID/g | 1.5 ± 0.4 % ID/g | 97% | 2.2 ± 0.83 % ID/g | 0.96 ± 0.24 % ID/g | 0.38 ± 0.32 % ID/g | CC(C)(C)[Si]([18F])(c1ccc(C(=O)NC[C@@H](NC(=O)CC[C@@H](C(=O)O)N2CCN(CC(=O)[O-])CCN(CC(=O)[O-])CCN(CC(=O)[O-])CC2)C(=O)N[C@H](CCCCNC(=O)CCC(=O)NCCC[C@@H](NC(=O)CC[C@H](NC(=O)N[C@@H](CCC(=O)O)C(=O)O)C(=O)O)C(=O)O)C(=O)O)cc1)C(C)(C)C.[Ga+3] [[^18F, ^natGa]rhPSMA-7.3] | higher | 161 ± 9 % of reference | Biodistribution Heart [2]: 0.87 ± 0.17 % ID/g; Biodistribution Intestine [2]: 0.35 ± 0.07 % ID/g; Biodistribution Kidneys [2]: 292 ± 45.1 % ID/g; Biodistribution Liver [2]: 0.69 ± 0.13 % ID/g; Biodistribution Lung [2]: 2.2 ± 0.35 % ID/g; Biodistribution Muscle [2]: 0.33 ± 0.15 % ID/g; Biodistribution Pancreas [2]: 0.63 ± 0.44 % ID/g; Biodistribution Spleen [2]: 16.6 ± 2.6 % ID/g; Biodistribution Stomach [2]: 0.44 ± 0.23 % ID/g; Biodistribution Tumor [2]: 18.3 ± 7.2 % ID/g
6 | 3.6 ± 0.7 nM | – | – | – | – | – | – | – | – | – | – | – | – | – | – | – | – | – | CC(C)(C)[Si](F)(c1ccc(C(=O)NC[C@H](NC(=O)CC[C@@H](C(=O)O)N2CCN(CC(=O)[O-])CCN(CC(=O)[O-])CCN(CC(=O)[O-])CC2)C(=O)N[C@H](CCCCNC(=O)CCC(=O)NCCC[C@@H](NC(=O)CC[C@H](NC(=O)N[C@@H](CCC(=O)O)C(=O)O)C(=O)O)C(=O)O)C(=O)O)cc1)C(C)(C)C.[Ga+3] [[^18F, ^natGa]rhPSMA-7.4] | – | – | –

Reference: publication PMC7721954, “Preclinical comparison of four [^18F, ^natGa]rhPSMA-7 isomers: influence of the stereoconfiguration on pharmacokinetics” (EJNMMI Research, 2020)
